Test results from US5043328A, “Formulations containing unsaturated fatty acids for the synthesis of prostaglandins and hydroxy-fatty acids in biological systems” (priority 1986, dated 1991).
Entries after “also recorded” stand apart in the source; their conditions may differ.

Conditions: not given
Procedure: Method 1: Investigation of the Stability of Unsaturated Fatty Acids in the Formulations
The stabilizing action of substances on polyunsaturated fatty acids was investigated as follows:
Test A for Water-Soluble Substances:
0.125 mg of unsaturated fatty acid or Na salt (see tables) (sodium arachidonate, from Sigma, Munich, Germany) is dissolved in 0.05 ml of water. 0.2 ml of aqueous solution which contains 2 mg of stabilizer and can additionally contain 2 mg of stimulator is mixed in (cf. Table 1), 0.1 ml is then taken out immediately, extracted and analysed (see below). Further processing according to modification 1 or 2.
Modification 1 for Aqueous Solutions
After 24 hours incubation at 37° C., 0.1 ml is again taken, extracted and analysed (see below).
Modification 2 for Solid Mixtures (Lyophilisates)
The test solution is lyophilized, the lyophilisate is incubated for 24 hours at 37° C. and then dissolved again in the previous quantity of water, and 0.1 ml is taken, extracted and analysed (see below).
Test B for Water-Insoluble Substances:
0.125 mg of unsaturated fatty acid (arachidonic acid, 5,8,11,14,17-eicosapentaenoic acid or 8,11,14-eicosatrienoic acid, from Sigma, Munich) is dissolved in 0.05 ml of ethanol or dimethyl sulfoxide. 0.2 ml of ethanol (or dimethyl sulfoxide) which contains 2 mg of stabilizer and can additionally contain 2 mg of the stimulator (cf. Table 1) is added thereto, and 0.1 ml is taken immediately and, as below, extracted and analysed. Further treatment according to modification 1 or 2.
Modification 1 for Solutions
After 24 hours' incubation at 37° C., 0.1 ml is again taken, mixed with 0.1 ml of water, extracted and analysed.
Modification 2 for Solid Mixtures
The remaining solution is freed of solvent, incubated for 24 hours at 37° C. and then dissolved again in 0.15 ml of solvent, and 0.1 ml is taken, mixed with 0.1 ml of water, extracted and analysed.
0.05 ml of 1.2M aqueous citric acid solution is added to the samples obtained, and the samples are extracted with twice 0.5 ml of ethyl acetate, the ethyl acetate is removed from the combined extracts and the residue is dissolved in 0.8 ml of methanol and analysed by means of high-pressure liquid chromatography (HPLC) (Rad Pak C-18 column, 100×8 mm, from Waters, Konigstein, Germany, 1.5 ml/minute, solvent 800 ml of methanol, 200 ml of water and 0.1 ml of glacial acetic acid). The separation is monitored with a commercially available UV detector at 206 nm.
The prostaglandins PGE2, PGF2 alpha and PGD2 as products from arachidonic acid where quantified by means of method 2, and the sum was related as "total prostaglandin" to 100%. The quantity of "total prostaglandin" formed without the addition of a stimulator was set at f=1; the quantity formed after stimulation was related thereto. f=2 or f=3 therefore means twice or three times the stimulation under the conditions of method 2. The stability of the sample was investigated by means of method 1 (right-hand column). […] Values greater than 25-28% therefore represent a stabilization, and values smaller than 25-28% represent a destabilization. Example No. 1 was carried out without a stimulator.

Molecule | stabilization of aqueous mixtures of unsaturated fatty acid and stimulators
O=C[C@H](O)[C@@H](O)[C@H](O)[C@H](O)CO [glucose, reference compound] | not stabilizing
OC[C@@H](O)[C@@H](O)[C@H](O)[C@@H](O)CO [sorbitol, reference compound] | not stabilizing
rhamnoglucose [reference compound] | not stabilizing

Same assay, conditions: 1440 min

Molecule | Stabilization (% remaining unsaturated fatty acid by Method 1)
OC[C@H]1O[C@@H]2O[C@H]3[C@H](O)[C@@H](O)[C@@H](O[C@H]4[C@H](O)[C@@H](O)[C@@H](O[C@H]5[C@H](O)[C@@H](O)[C@@H](O[C@H]6[C@H](O)[C@@H](O)[C@@H](O[C@H]7[C@H](O)[C@@H](O)[C@@H](O[C@H]1[C@H](O)[C@H]2O)O[C@@H]7CO)O[C@@H]6CO)O[C@@H]5CO)O[C@@H]4CO)O[C@@H]3CO [Example 62, alpha-Dextrin (Cyclohexaamylose)] | 60%
OC[C@H]1O[C@@H]2O[C@H]3[C@H](O)[C@@H](O)[C@@H](O[C@H]4[C@H](O)[C@@H](O)[C@@H](O[C@H]5[C@H](O)[C@@H](O)[C@@H](O[C@H]6[C@H](O)[C@@H](O)[C@@H](O[C@H]7[C@H](O)[C@@H](O)[C@@H](O[C@H]8[C@H](O)[C@@H](O)[C@@H](O[C@H]9[C@H](O)[C@@H](O)[C@@H](O[C@H]1[C@H](O)[C@H]2O)O[C@@H]9CO)O[C@@H]8CO)O[C@@H]7CO)O[C@@H]6CO)O[C@@H]5CO)O[C@@H]4CO)O[C@@H]3CO [Example 64, gamma-Dextrin (Cyclooctaamylose)] | 75%

Same assay, conditions: A) aqueous solution without stabilizer addition; 24 h 37° C.

Molecule | Stability (% of remaining arachidonic acid by Method 1)
CCCCC/C=C\C/C=C\C/C=C\C/C=C\CCCC(=O)O [arachidonic acid] | 25-28%

Same assay, conditions: aqueous medium; result in words

Molecule | undesired decomposition / byproducts of polyunsaturated fatty acid (arachidonic acid) with added stimulator
N[C@@H](Cc1c[nH]c2ccc(O)cc12)C(=O)O [5-hydroxytryptophan, reference compound] | considerably accelerated
CNCC(O)c1ccc(O)c(O)c1 (stereo not drawn) [adrenalin, reference compound] | considerably accelerated
Oc1ccc(O)cc1 [hydroquinone, reference compound] | markedly greater quantity; also recorded: considerably accelerated
NC[C@H](O)c1ccc(O)c(O)c1 [noradrenalin, reference compound] | considerably accelerated
N[C@@H](Cc1c[nH]c2ccccc12)C(=O)O [tryptophan, reference compound] | considerably accelerated
N[C@@H](Cc1ccc(O)cc1)C(=O)O [tyrosine] | completely stable

Same assay, conditions: fatty acid with stimulator; result in words

Molecule | effect of solvent used instead of water on formation of undesired byproducts
CCC(C)O (stereo not drawn) [Example 2-butanol, 2-butanol] | additional destabilizing effect
C[S+](C)[O-] [dimethyl sulfoxide] | do not arise
CCO [ethanol] | do not arise
OCC(O)CO [glycerol] | do not arise
c1ccncc1 [pyridine] | additional destabilizing effect
polyethylene glycol | do not arise
